Converted amounts (≈) assume the structure as drawn.
Assays:
[1] = test system: Mycobacterium tuberculosis; assay: Antibacterial activity against Mycobacterium tuberculosis mc2 6230 assessed as bacterial growth inhibition incubated for 5 days by resazurin microtiter assay; assay type: functional; details: mc2 6230, 120 h, time 5 day
[2] = Inhibition of Staphylococcus aureus ATCC6538p Sortase A incubated for 1 hr by fluorescence spectrophotometric analysis
SNU-638 = assay: Antiproliferative activity against human SNU-638 cells assessed as reduction in cell viability incubated for 72 hr by SRB assay; assay type: functional, cell-based; details: SNU-638, 72 h
Staphylococcus aureus = assay: Antibacterial activity against Staphylococcus aureus ATCC 25923 assessed as inhibition of bacterial growth incubated for 24 hr by CLSI based broth microdilution method; assay type: functional
Enterococcus faecalis = assay: Antibacterial activity against Enterococcus faecalis ATCC 19433 assessed as inhibition of bacterial growth incubated for 24 hr by CLSI based broth microdilution method; assay type: functional
Klebsiella pneumoniae = assay: Antibacterial activity against Klebsiella pneumoniae ATCC 10031 assessed as inhibition of bacterial growth incubated for 24 hr by CLSI based broth microdilution method; assay type: functional
Escherichia coli = assay: Antibacterial activity against Escherichia coli ATCC 25922 assessed as inhibition of bacterial growth incubated for 24 hr by CLSI based broth microdilution method; assay type: functional
A498 = assay: Antiproliferative activity against human A498 cells assessed as reduction in cell viability incubated for 72 hr by SRB assay; assay type: functional, cell-based; details: A498, 72 h
HCT-116 = assay: Antiproliferative activity against human HCT116 cells assessed as reduction in cell viability incubated for 72 hr by SRB assay; assay type: functional, cell-based; details: HCT-116, 72 h
MDA-MB-231 = assay: Antiproliferative activity against human MDA-MB-231 cells assessed as reduction in cell viability incubated for 72 hr by SRB assay; assay type: functional, cell-based; details: MDA-MB-231, 72 h
SK-HEP1 = assay: Antiproliferative activity against human SK-HEP1 cells assessed as reduction in cell viability incubated for 72 hr by SRB assay; assay type: functional, cell-based; details: SK-HEP1, 72 h
Candida albicans = assay: Antifungal activity against Candida albicans ATCC 10231 assessed as fungal growth inhibition incubated for 24 hrs; assay type: functional
Aspergillus fumigatus = assay: Antifungal activity against Aspergillus fumigatus HIC 6094 assessed as fungal growth inhibition incubated for 48 hrs; assay type: functional
Trichophyton rubrum = assay: Antifungal activity against Trichophyton rubrum NBRC 9185 assessed as fungal growth inhibition incubated for 96 hrs; assay type: functional
[3] = test system: Trichophyton mentagrophytes; assay: Antifungal activity against Trichophyton mentagrophytes IFM 40996 assessed as fungal growth inhibition incubated for 96 hrs; assay type: functional
Enterococcus faecium = assay: Antibacterial activity against Enterococcus faecium ATCC 19434 assessed as inhibition of bacterial growth incubated for 24 hr by CLSI based broth microdilution method; assay type: functional
Salmonella enterica = assay: microbe, parasite or virus in culture; details: ATCC 14028, 24 h
Description: Antibacterial activity against Salmonella enterica ATCC 14028 assessed as inhibition of bacterial growth incubated for 24 hr by CLSI based broth microdilution method

Row | SMILES | MIC [1] [µg/mL] | IC50 [2] [µg/mL] | IC50 (SNU-638) [µM] | MIC (Staphylococcus aureus) [µg/mL] | MIC (Enterococcus faecalis) [µg/mL] | MIC (Klebsiella pneumoniae) [µg/mL] | MIC (Escherichia coli) [µg/mL] | IC50 (A498) [µM] | IC50 (HCT-116) [µM] | IC50 (MDA-MB-231) [µM] | IC50 (SK-HEP1) [µM] | MIC (Candida albicans) [µg/mL] | MIC (Aspergillus fumigatus) [µg/mL] | MIC (Trichophyton rubrum) [µg/mL] | MIC [3] [µg/mL] | MIC (Enterococcus faecium) [µg/mL] | MIC (Salmonella enterica) [µg/mL] | MIC50 [1] [µg/mL]
1 | Cc1c(Cl)c(O[C@@H]2O[C@@H](C)[C@@H](O)[C@@H](O)[C@H]2O)c2cc(O[C@@H]3O[C@@H](C)[C@@H](O)[C@@H](O)[C@H]3O)ccc2c1Cl | 15 (≈ 28 µM) | 63.3 (≈ 118 µM) | 8.6 | 8 (≈ 14.9 µM) | 16 (≈ 29.9 µM) | 32 (≈ 59.8 µM) | > 128 | 18.8 | 5.6 | 19.4 | 14.7 | > 128 | > 128 | > 128 | > 128 | 16 (≈ 29.9 µM) | 16 (≈ 29.9 µM) | 
2 | Cc1cc2c(c(O[C@@H]3O[C@@H](C)[C@@H](O)[C@@H](O)[C@H]3O)c1)-c1cc3c(c(O)c1[C@@H](O)C2)C(=O)c1c(O)cc(O)cc1C3=O |  |  | > 20 | > 128 | > 128 | > 128 | > 128 | > 20 | > 20 | > 20 | > 20 |  |  |  |  | 128 (≈ 233 µM) | > 128 | 
3 | CC1(C)S[C@@H]2[C@H](NC(=O)[C@H](N)c3ccccc3)C(=O)N2[C@H]1C(=O)O [AMPICILLIN] |  |  |  | 0.13 (≈ 0.372 µM) | 0.5 (≈ 1.43 µM) |  | 8 (≈ 22.9 µM) |  |  |  |  |  |  |  |  | 0.25 (≈ 0.715 µM) | 0.13 (≈ 0.372 µM) | 
4 | COc1nc2ccc(Br)cc2cc1[C@@H](c1ccccc1)[C@@](O)(CCN(C)C)c1cccc2ccccc12 [BEDAQUILINE] |  |  |  |  |  |  |  |  |  |  |  |  |  |  |  |  |  | 0.5 (≈ 0.9 µM)
5 | COc1cc([C@@H]2c3cc4c(cc3[C@@H](O[C@@H]3O[C@@H]5CO[C@@H](C)O[C@H]5[C@H](O)[C@H]3O)[C@H]3COC(=O)[C@H]23)OCO4)cc(OC)c1O [ETOPOSIDE] |  |  | 0.4 |  |  |  |  | 0.23 | 0.25 | 2.8 | 0.22 |  |  |  |  |  |  | 
6 | CN(C)[C@@H]1C(O)=C(C(N)=O)C(=O)[C@@]2(O)C(O)=C3C(=O)c4c(O)cccc4[C@@](C)(O)[C@H]3C[C@@H]12 [TETRACYCLINE] |  |  |  |  |  | 0.25 (≈ 0.563 µM) |  |  |  |  |  |  |  |  |  |  |  | 

From ChEMBL document CHEMBL5042501, “Gwanakosides A and B, 6-Deoxy-α-l-talopyranose-Bearing Aromatic Metabolites from a Streptomyces sp. and Coculture with Pandoraea sp” (J Nat Prod, 2022)
